US11173151B2, “Substituted triazole derivatives and uses thereof” (BAYER AKTIENGESELLSCHAFT, priority 2017, dated 2021)
pIC50: −log10 of the molar value.

What was measured:
human V1a receptor = target: T1, human V1a receptor (Homo sapiens, UniProt P37288); test: Cellular in vitro assay for determining vasopressin receptor activity, V1a receptor cell line (CHO, aequorin luminescence); assay type: cell-based; conditions: for pIC50: CHO cell line transfected with human V1a receptor, [Arg]-vasopressin at EC50 concentration, read-out: IC50 hV1a; for ratio IC50 hV2/hV1a: selectivity ratio IC50 hV2 / IC50 hV1a
T1 construct: expressed in transfected cells; host or cells: CHO K1 (ATCC), also stably transfected with a modified aequorin
T1 sequence (P37288 whole entry): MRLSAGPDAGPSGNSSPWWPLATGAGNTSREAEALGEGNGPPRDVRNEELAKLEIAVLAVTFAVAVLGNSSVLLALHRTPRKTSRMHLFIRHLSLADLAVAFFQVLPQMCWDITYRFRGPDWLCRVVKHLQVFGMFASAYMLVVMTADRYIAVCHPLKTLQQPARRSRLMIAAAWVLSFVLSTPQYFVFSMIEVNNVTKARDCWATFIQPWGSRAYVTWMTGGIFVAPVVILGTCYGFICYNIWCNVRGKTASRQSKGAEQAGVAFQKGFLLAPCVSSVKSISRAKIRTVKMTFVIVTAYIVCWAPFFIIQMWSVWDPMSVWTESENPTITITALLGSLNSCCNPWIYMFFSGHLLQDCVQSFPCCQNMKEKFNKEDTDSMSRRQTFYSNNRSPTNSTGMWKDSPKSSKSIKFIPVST
In short: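 Cells were plated the day before in medium containing 5 μg/ml coelenterazine and kept at 37° C. Compounds at various concentrations were then added for 10 minutes. Next, [Arg]-vasopressin at EC50 was applied and light output recorded at once, yielding IC50.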

human V2 receptor = target: T2, human V2 receptor (Homo sapiens, UniProt P30518); test: Cellular in vitro assay for determining vasopressin receptor activity, V2 receptor cell line (CHO, CRE-luciferase); assay type: cell-based; conditions: CHO cell line transfected with human V2 receptor; [Arg8]-vasopressin at EC50 concentration, 3 hours; read-out: IC50 hV2
T2 construct: expressed in transfected cells; host or cells: CHO K1 (ATCC) expressing firefly luciferase under a CRE-responsive promoter
T2 sequence (P30518 whole entry): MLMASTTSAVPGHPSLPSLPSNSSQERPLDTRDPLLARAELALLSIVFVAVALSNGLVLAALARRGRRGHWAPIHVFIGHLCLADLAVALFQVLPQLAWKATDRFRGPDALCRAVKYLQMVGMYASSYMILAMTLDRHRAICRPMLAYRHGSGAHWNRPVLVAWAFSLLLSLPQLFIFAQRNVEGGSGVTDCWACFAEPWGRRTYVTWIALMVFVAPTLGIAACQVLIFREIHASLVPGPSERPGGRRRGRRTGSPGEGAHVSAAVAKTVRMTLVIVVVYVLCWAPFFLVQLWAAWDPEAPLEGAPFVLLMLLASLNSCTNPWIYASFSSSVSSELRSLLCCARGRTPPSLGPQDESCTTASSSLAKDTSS

| Structure (SMILES) | pIC50 (human V1a receptor) | ratio IC50 hV2/hV1a (human V1a receptor) | pIC50 (human V2 receptor) |
| --- | --- | --- | --- |
| O=C(NCc1cccs1)c1ccccc1-n1cnc(Cn2nc(-c3ccc(Cl)cc3)n(C[C@H](O)C(F)(F)F)c2=O)n1 [Example 253, 2-[3-({3-(4-Chlorophenyl)-5-oxo-4-[(2S)-3,3,3-trifluoro-2-hydroxypropyl]-4,5-dihydro-1H-1,2,4-triazol-1-yl}methyl)-1H-1,2,4-triazol-1-yl]-N-(thiophen-2-ylmethyl)benzamide] | 8.24 | 64.0 | 6.44 |
| Cc1cc(NC(=O)c2ccccc2-n2cnc(Cn3nc(-c4ccc(Cl)cc4)n(C[C@H](O)C(F)(F)F)c3=O)n2)ccn1 [Example 254, 2-[3-({3-(4-Chlorophenyl)-5-oxo-4-[(2S)-3,3,3-trifluoro-2-hydroxypropyl]-4,5-dihydro-1H-1,2,4-triazol-1-yl}methyl)-1H-1,2,4-triazol-1-yl]-N-(2-methylpyridin-4-yl)benzamide] | 8.65 | 297.8 | 6.17 |
| O=C(Nc1cncc(F)c1)c1ccccc1-n1cnc(Cn2nc(-c3ccc(Cl)cc3)n(C[C@H](O)C(F)(F)F)c2=O)n1 [Example 255, 2-[3-({3-(4-Chlorophenyl)-5-oxo-4-[(2S)-3,3,3-trifluoro-2-hydroxypropyl]-4,5-dihydro-1H-1,2,4-triazol-1-yl}methyl)-1H-1,2,4-triazol-1-yl]-N-(5-fluoropyridin-3-yl)benzamide] | 8.88 | 169.8 | 6.65 |
| Cc1cnc(NC(=O)c2ccccc2-n2cnc(Cn3nc(-c4ccc(Cl)cc4)n(C[C@H](O)C(F)(F)F)c3=O)n2)s1 [Example 256, 2-[3-({3-(4-Chlorophenyl)-5-oxo-4-[(2S)-3,3,3-trifluoro-2-hydroxypropyl]-4,5-dihydro-1H-1,2,4-triazol-1-yl}methyl)-1H-1,2,4-triazol-1-yl]-N-(5-methyl-1,3-thiazol-2-yl)benzamide] | 8.44 | 3.6 | 7.89 |
| O=C(Nc1ccncn1)c1ccccc1-n1cnc(Cn2nc(-c3ccc(Cl)cc3)n(C[C@H](O)C(F)(F)F)c2=O)n1 [Example 257, 2-[3-({3-(4-Chlorophenyl)-5-oxo-4-[(2S)-3,3,3-trifluoro-2-hydroxypropyl]-4,5-dihydro-1H-1,2,4-triazol-1-yl}methyl)-1H-1,2,4-triazol-1-yl]-N-(pyrimidin-4-yl)benzamide] | 8.22 | 24.8 | 6.82 |
| O=C(Nc1ccccc1Cl)c1ccccc1-n1cnc(Cn2nc(-c3ccc(Cl)cc3)n(C[C@H](O)C(F)(F)F)c2=O)n1 [Example 258, N-(2-Chlorophenyl)-2-[3-({3-(4-chlorophenyl)-5-oxo-4-[(2S)-3,3,3-trifluoro-2-hydroxypropyl]-4,5-dihydro-1H-1,2,4-triazol-1-yl}methyl)-1H-1,2,4-triazol-1-yl]benzamide] | 8.72 | 42.9 | 7.09 |
| Cc1csc(NC(=O)c2ccccc2-n2cnc(Cn3nc(-c4ccc(Cl)cc4)n(C[C@H](O)C(F)(F)F)c3=O)n2)n1 [Example 259, 2-[3-({3-(4-Chlorophenyl)-5-oxo-4-[(2S)-3,3,3-trifluoro-2-hydroxypropyl]-4,5-dihydro-1H-1,2,4-triazol-1-yl}methyl)-1H-1,2,4-triazol-1-yl]-N-(4-methyl-1,3-thiazol-2-yl)benzamide] | 8.60 | 22.0 | 7.26 |
| CCN(OC)C(=O)c1ccccc1-n1cnc(Cn2nc(-c3ccc(Cl)cc3)n(C[C@H](O)C(F)(F)F)c2=O)n1 [Example 261, 2-[3-({3-(4-Chlorophenyl)-5-oxo-4-[(2S)-3,3,3-trifluoro-2-hydroxypropyl]-4,5-dihydro-1H-1,2,4-triazol-1-yl}methyl)-1H-1,2,4-triazol-1-yl]-N-ethyl-N-methoxybenzamide] | 8.84 | 310.3 | 6.35 |
| CN(C)C(=O)c1ccccc1-n1cnc(Cn2nc(-c3ccc(Cl)cc3)n(C[C@H](O)C(F)(F)F)c2=O)n1 [Example 264, 2-[3-({3-(4-Chlorophenyl)-5-oxo-4-[(2S)-3,3,3-trifluoro-2-hydroxypropyl]-4,5-dihydro-1H-1,2,4-triazol-1-yl}methyl)-1H-1,2,4-triazol-1-yl]-N,N-dimethylbenzamide] | 8.61 | 512.2 | 5.90 |
| CN(CC(F)(F)F)C(=O)c1ccccc1-n1cnc(Cn2nc(-c3ccc(Cl)cc3)n(C[C@H](O)C(F)(F)F)c2=O)n1 [Example 272, 2-[3-({3-(4-Chlorophenyl)-5-oxo-4-[(2S)-3,3,3-trifluoro-2-hydroxypropyl]-4,5-dihydro-1H-1,2,4-triazol-1-yl}methyl)-1H-1,2,4-triazol-1-yl]-N-methyl-N-(2,2,2-trifluoroethyl)benzamide] | 8.23 | 299.1 | 5.76 |
| CN1CC2CC1CN2C(=O)c1ccccc1-n1cnc(Cn2nc(-c3ccc(Cl)cc3)n(C[C@H](O)C(F)(F)F)c2=O)n1 (stereo partly drawn) [Example 273, 5-(4-Chlorophenyl)-2-[(1-{2-[(5-methyl-2,5-diazabicyclo[2.2.1]hept-2-yl)carbonyl]phenyl}-1H-1,2,4-triazol-3-yl)methyl]-4-[(2S)-3,3,3-trifluoro-2-hydroxypropyl]-2,4-dihydro-3H-1,2,4-triazol-3-one] | 7.89 | 476.9 | 5.21 |
| CN(C(=O)c1ccccc1-n1cnc(Cn2nc(-c3ccc(Cl)cc3)n(C[C@H](O)C(F)(F)F)c2=O)n1)C1CCCC1 [Example 276, 2-[3-({3-(4-Chlorophenyl)-5-oxo-4-[(2S)-3,3,3-trifluoro-2-hydroxypropyl]-4,5-dihydro-1H-1,2,4-triazol-1-yl}methyl)-1H-1,2,4-triazol-1-yl]-N-cyclopentyl-N-methylbenzamide] | 8.57 | 425.9 | 5.94 |

Results, then the compound that gave them:

| pIC50 (human V1a receptor) | ratio IC50 hV2/hV1a (human V1a receptor) | pIC50 (human V2 receptor) | Structure (SMILES) |
| --- | --- | --- | --- |
| 7.59 | 29.8 | 6.12 | CC1=C(C)CN(C(=O)c2ccccc2-n2cnc(Cn3nc(-c4ccc(Cl)cc4)n(C[C@H](O)C(F)(F)F)c3=O)n2)CC1 [Example 260, 5-(4-Chlorophenyl)-2-[(1-{2-[(4,5-dimethyl-3,6-dihydropyridin-1(2H)-yl)carbonyl]phenyl}-1H-1,2,4-triazol-3-yl)methyl]-4-[(2S)-3,3,3-trifluoro-2-hydroxypropyl]-2,4-dihydro-3H-1,2,4-triazol-3-one] |
| 8.47 | 258.8 | 6.06 | O=C(c1ccccc1-n1cnc(Cn2nc(-c3ccc(Cl)cc3)n(C[C@H](O)C(F)(F)F)c2=O)n1)N1C[C@@H]2C[C@H]1CO2 [Example 262, 5-(4-Chlorophenyl)-2-[(1-{2-[(1S,4S)-2-oxa-5-azabicyclo[2.2.1]hept-5-ylcarbonyl]phenyl}-1H-1,2,4-triazol-3-yl)methyl]-4-[(2S)-3,3,3-trifluoro-2-hydroxypropyl]-2,4-dihydro-3H-1,2,4-triazol-3-one] |
| 7.49 | 256.9 | 5.08 | O=CN1CCN(C(=O)c2ccccc2-n2cnc(Cn3nc(-c4ccc(Cl)cc4)n(C[C@H](O)C(F)(F)F)c3=O)n2)CC1 [Example 263, 4-{2-[3-({3-(4-Chlorophenyl)-5-oxo-4-[(2S)-3,3,3-trifluoro-2-hydroxypropyl]-4,5-dihydro-1H-1,2,4-triazol-1-yl}methyl)-1H-1,2,4-triazol-1-yl]benzoyl}piperazine-1-carbaldehyde] |
| 7.46 | 255.1 | 5.06 | O=C1CCN(C(=O)c2ccccc2-n2cnc(Cn3nc(-c4ccc(Cl)cc4)n(C[C@H](O)C(F)(F)F)c3=O)n2)CCN1 [Example 265, 1-{2-[3-({3-(4-Chlorophenyl)-5-oxo-4-[(2S)-3,3,3-trifluoro-2-hydroxypropyl]-4,5-dihydro-1H-1,2,4-triazol-1-yl}methyl)-1H-1,2,4-triazol-1-yl]benzoyl}-1,4-diazepan-5-one] |
| 8.41 | 223.4 | 6.07 | CC1CCN(C(=O)c2ccccc2-n2cnc(Cn3nc(-c4ccc(Cl)cc4)n(C[C@H](O)C(F)(F)F)c3=O)n2)C(C)C1 (stereo partly drawn) [Example 266, 5-(4-Chlorophenyl)-2-[(1-{2-[(2,4-dimethylpiperidin-1-yl)carbonyl]phenyl}-1H-1,2,4-triazol-3-yl)methyl]-4-[(2S)-3,3,3-trifluoro-2-hydroxypropyl]-2,4-dihydro-3H-1,2,4-triazol-3-one] |
| 7.47 | 119.4 | 5.40 | CC1CN(C(=O)c2ccccc2-n2cnc(Cn3nc(-c4ccc(Cl)cc4)n(C[C@H](O)C(F)(F)F)c3=O)n2)CCN1C (stereo partly drawn) [Example 267] |
| 8.44 | 265.8 | 6.01 | O=C(c1ccccc1-n1cnc(Cn2nc(-c3ccc(Cl)cc3)n(C[C@H](O)C(F)(F)F)c2=O)n1)N1CCC(F)(F)C1 [Example 268, 5-(4-Chlorophenyl)-2-[(1-{2-[(3,3-difluoropyrrolidin-1-yl)carbonyl]phenyl}-1H-1,2,4-triazol-3-yl)methyl]-4-[(2S)-3,3,3-trifluoro-2-hydroxypropyl]-2,4-dihydro-3H-1,2,4-triazol-3-one] |
| 7.84 | 241.4 | 5.46 | COC1CCN(C(=O)c2ccccc2-n2cnc(Cn3nc(-c4ccc(Cl)cc4)n(C[C@H](O)C(F)(F)F)c3=O)n2)CC1 [Example 271, 5-(4-Chlorophenyl)-2-[(1-{2-[(4-methoxypiperidin-1-yl)carbonyl]phenyl}-1H-1,2,4-triazol-3-yl)methyl]-4-[(2S)-3,3,3-trifluoro-2-hydroxypropyl]-2,4-dihydro-3H-1,2,4-triazol-3-one] |
